Earlier results on 1 compound are cited in patent publication US20230149402A1, “SOLID PHARMACEUTICAL PREPARATION, PREPARATION METHOD THEREFOR AND USE THEREOF” (SHANGHAI HAIYAN PHARMACEUTICAL TECHNOLOGY CO., LTD, priority 2020, published 2023).

Data set [1] addresses T1, hOX1R (Homo sapiens, UniProt O43613).
T1 sequence (O43613 1-425): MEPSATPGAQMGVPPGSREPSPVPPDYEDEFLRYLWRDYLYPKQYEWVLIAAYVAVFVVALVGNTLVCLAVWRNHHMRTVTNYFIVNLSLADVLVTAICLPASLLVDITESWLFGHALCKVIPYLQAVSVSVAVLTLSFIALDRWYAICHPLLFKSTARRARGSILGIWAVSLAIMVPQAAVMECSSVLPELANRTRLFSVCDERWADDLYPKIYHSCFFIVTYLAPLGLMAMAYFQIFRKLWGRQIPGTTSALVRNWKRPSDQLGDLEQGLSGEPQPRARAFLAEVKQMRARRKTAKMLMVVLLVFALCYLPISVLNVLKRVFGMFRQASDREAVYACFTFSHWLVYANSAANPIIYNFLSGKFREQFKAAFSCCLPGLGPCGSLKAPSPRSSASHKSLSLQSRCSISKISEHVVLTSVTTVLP
The settings on record: FLIPR, read-out: IC50, inhibitory effect on OX1 GPCR receptor.

Data set [2] deals with T2, hOX2R (Homo sapiens, UniProt O43614).
T2 sequence (O43614 1-444): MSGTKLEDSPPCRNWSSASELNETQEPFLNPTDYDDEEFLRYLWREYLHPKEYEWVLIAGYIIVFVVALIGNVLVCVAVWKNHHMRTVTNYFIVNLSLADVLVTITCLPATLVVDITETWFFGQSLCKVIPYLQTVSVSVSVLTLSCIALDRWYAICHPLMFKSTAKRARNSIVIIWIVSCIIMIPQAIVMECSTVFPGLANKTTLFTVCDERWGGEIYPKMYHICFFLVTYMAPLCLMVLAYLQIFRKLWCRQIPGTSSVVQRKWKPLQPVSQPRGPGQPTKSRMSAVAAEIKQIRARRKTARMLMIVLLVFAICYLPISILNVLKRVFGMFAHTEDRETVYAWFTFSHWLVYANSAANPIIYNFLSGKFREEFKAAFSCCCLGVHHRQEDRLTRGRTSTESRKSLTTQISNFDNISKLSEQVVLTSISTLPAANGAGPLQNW
The following applies: FLIPR, read-out: IC50, inhibitory effect on OX2 GPCR receptor.

The structures appear in SMILES notation.

Turning to `Cc1ccc(-c2ncccn2)c(C(=O)N2[C@H]3CC[C@@H](COc4ccc(F)cn4)[C@@H]2CC3)c1` [compound of formula (II), ((1S,2R,5S)-2-(((5-fluoropyridin-2-yl)oxy)methyl)-8-azabicyclo[3.2.1]octan-8-yl)(5-methyl-2-(pyrimidin-2-yl)phenyl)methanone], the IC50 was 0.02 µM in data set [1] and 0.036 µM in data set [2].

A word on the IC50: it is the concentration needed to halve the response being measured.
